# Assay results from ChEMBL document CHEMBL1201862, “PubChem BioAssay data set” (2004).
# Calls of active or inactive are those of the source.
# Legend:
# [1] = NIH-3T3 fibroblast cytotoxicity, dose response, cytotoxicity control, cell-based, fluorescence, Alamar Blue, secondary assay (AID 2327); format: functional;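 note: NIH-3T3 mouse fibroblasts cultured with fluconazole at 8 µg/mL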
# [2] = fluconazole-exposed Candida albicans growth modulators – fluorescence, retest, confirmation (AID 2467); format: functional, cell-based
# [3] = molecular target: Protein-tyrosine kinase 2-beta (Homo sapiens, UniProt Q14289);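 note: potency of inhibitors of PYK2 kinase phosphorylation of poly-GT substrate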
# Nonstructural protein 1 = Nonstructural protein 1 (Influenza A virus, UniProt Q194T2); format: functional, Influenza A virus (A/California/07/2009(H1N1))
# Melanocortin receptor 4 = Melanocortin receptor 4 (Homo sapiens, UniProt P32245); test: inhibitors of MC4R cAMP signaling – cell-based, TR-FRET, biased antagonists, dose response (AID 602298); format: functional;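 note: antagonist potency against agonist-stimulated cAMP production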
# [4] = cAMP pathway inhibition in counterscreen cell line – TR-FRET cAMP detection, counter-screen for MC4R biased antagonist project, dose response (AID 602305); format: functional, cell-based;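 note: U2OS cells stimulated with forskolin near its EC80 as the cAMP inducer; potency is for inhibition of forskolin-stimulated cAMP signaling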
# [5] = blockers of HIV-1 envelope-mediated cell-cell fusion – cherry-pick, dose response (AID 652057); format: functional, cell-based
# [6] = viability loss in CEM21 cells – cell-based, CellTiter-Glo luminescence, cherry-picked, cytotoxicity control for viral fusion inhibitor project, dose response (AID 652042); format: functional;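 note: potency for signal decrease meaning cytotoxicity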
# [7] = blockers of HIV-1 ZM109 envelope-driven cell-cell fusion – HeLa effector, CEM target cells, luciferase, cherry-pick, dose response (AID 652058); format: functional, cell-based;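 note: luciferase signal from HIV-1 Env mediated cell-cell fusion of effector and target cells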
# [8] = HIV-1 AD8 envelope cell-cell fusion blockers – cherry-pick, dose response (AID 652062); format: functional, cell-based;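 note: luciferase signal from cell-cell fusion driven by HIV-1 clade B AD8 Env; potency is for inhibitors of fusion seen as a drop in luminescence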
# Protein Tat = Protein Tat (Human immunodeficiency virus type 1 group M subtype B (isolate HXB2)(HIV-1), UniProt P04608); format: functional;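 note: tat binding to TAR RNA read out by fluorescence polarization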
# cells = format: functional, cell-based
# [9] = molecular target: T1, Nuclear receptor subfamily 0 group B member 1 (Homo sapiens, UniProt P51843); format: functional, cell-based;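 note: HEK293T cells transfected with SF-1 and DAX-1 plus StAR promoter luciferase reporter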
# T1 sequence (P51843 whole entry): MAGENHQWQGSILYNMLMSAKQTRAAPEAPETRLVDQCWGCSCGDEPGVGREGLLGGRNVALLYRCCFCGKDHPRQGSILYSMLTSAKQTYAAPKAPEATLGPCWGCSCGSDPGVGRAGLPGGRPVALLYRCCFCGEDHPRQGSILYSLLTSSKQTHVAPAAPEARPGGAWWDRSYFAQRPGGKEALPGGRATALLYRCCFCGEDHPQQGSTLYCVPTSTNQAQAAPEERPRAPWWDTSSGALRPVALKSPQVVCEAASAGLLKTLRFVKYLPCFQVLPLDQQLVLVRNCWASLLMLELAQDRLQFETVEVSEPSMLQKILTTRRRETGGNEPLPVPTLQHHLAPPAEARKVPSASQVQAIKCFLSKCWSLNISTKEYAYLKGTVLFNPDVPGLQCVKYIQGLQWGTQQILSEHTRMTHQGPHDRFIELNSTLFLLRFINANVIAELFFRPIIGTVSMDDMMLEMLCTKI
# [10] = molecular target: COUP transcription factor 2 (Homo sapiens, UniProt P24468); test: Luminescence-based cell-based high throughput dose response assay to identify inhibitors of COUP-TFII (NR2F2).; format: functional;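 note: HEK293 cells transiently cotransfected with COUP-TFII expression vector and reporter; luciferase reporter luminescence driven by COUP-TFII from the pX2-168 reporter plasmid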
# Paired box protein Pax-8 = Paired box protein Pax-8 (Homo sapiens, UniProt Q06710); test: PAX8 transcriptional activity inhibition in RMG-I – RMG-I cells, luciferase, cherry-pick, dose response (AID 687027); format: functional, cell-based;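 note: luciferase reporter driven by Pax8 target thyroperoxidase promoter measured by SteadyGlo luminescence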
# [11] = toxicity toward immortalized ovarian surface epithelium – cell-based, plate reader, dry powder samples, cytotoxicity control for PAX8 inhibitor project, dose response (AID 743045); format: functional
# [12] = OVCAR-3 cell viability loss – plate reader, dry powder samples, PAX8 inhibitor project, dose response (AID 743044); format: functional, cell-based
# [13] = general cell-killing toxicity readout – plate reader, dry powder samples, cytotoxicity control for PAX8 inhibitor project, dose response (AID 743021); format: functional, cell-based
# [14] = OVCAR8 cell viability loss – plate reader, dry powder samples, PAX8 project, dose response (AID 743197); format: functional, cell-based; settings: OVCAR-8
# [15] = A549 lung cell viability reduction – CellTiter-Glo luminescence, cherry-pick, cytotoxicity control, dose response (AID 743484); format: functional, cell-based
# [16] = ATP-based viability loss in HEK293T cells – cell-based, CellTiter-Glo luminescence, cherry-picked samples, set 4, cytotoxicity control, dose response (AID 743441); format: functional; settings: HEK293
# [17] = Luminescence Cell-Based Dose Response to Identify Activators of 5'UTR Stem-Loop Driven Prion Protein mRNA Translation in H4-C Neuroglioblastoma Cells. [Related pubchem assays: 1829 (Project Summary), 1814 (Primary HTS)]; format: functional
# [18] = Luminescence Cell-Based Dose Response HTS to Identify Activators of Luciferase Translation or Activity in H4 […] Cells. [Related pubchem assays: 1829 (Project Summary), 1814 (Primary HTS)]; format: functional
# H4 = test: Luminescence Cell-Based Dose Response HTS to Identify Activators of 5'UTR Stem-Loop Driven Prion Protein mRNA Translation in H4 Neuroglioblastoma Cells. [Related pubchem assays: 1829 (Project Summary), 1814 (Primary HTS)]; format: functional; settings: Homo sapiens
# [19] = Luminescence Cell-Based Dose Response to Identify Activators of Luciferase Translation or Activity in H4-C Neuroglioblastoma Cells. [Related pubchem assays: 1829 (Project Summary), 1814 (Primary HTS)]; format: functional
# [20] = Luminescence Cell-Based Dose Confirmation to Identify Activators of 5'UTR Stem-Loop Driven Alpha-Synuclein mRNA Translation in H4 Neuroglioblastoma Cells. [Related pubchem assays: 1829 (Project Summary), 1814 (Primary HTS)]; format: functional
# Chain of Melanocortin receptor 4 (P32245 whole entry): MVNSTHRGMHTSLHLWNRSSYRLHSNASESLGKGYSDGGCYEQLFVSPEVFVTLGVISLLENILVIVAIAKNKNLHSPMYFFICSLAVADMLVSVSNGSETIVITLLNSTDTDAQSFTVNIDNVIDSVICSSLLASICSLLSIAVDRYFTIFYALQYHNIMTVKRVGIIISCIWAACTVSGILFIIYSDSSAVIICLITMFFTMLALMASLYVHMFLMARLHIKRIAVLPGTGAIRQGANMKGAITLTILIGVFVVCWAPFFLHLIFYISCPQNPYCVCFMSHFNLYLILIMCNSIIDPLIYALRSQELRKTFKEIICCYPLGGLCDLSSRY
# Chain of COUP transcription factor 2 (P24468 whole entry): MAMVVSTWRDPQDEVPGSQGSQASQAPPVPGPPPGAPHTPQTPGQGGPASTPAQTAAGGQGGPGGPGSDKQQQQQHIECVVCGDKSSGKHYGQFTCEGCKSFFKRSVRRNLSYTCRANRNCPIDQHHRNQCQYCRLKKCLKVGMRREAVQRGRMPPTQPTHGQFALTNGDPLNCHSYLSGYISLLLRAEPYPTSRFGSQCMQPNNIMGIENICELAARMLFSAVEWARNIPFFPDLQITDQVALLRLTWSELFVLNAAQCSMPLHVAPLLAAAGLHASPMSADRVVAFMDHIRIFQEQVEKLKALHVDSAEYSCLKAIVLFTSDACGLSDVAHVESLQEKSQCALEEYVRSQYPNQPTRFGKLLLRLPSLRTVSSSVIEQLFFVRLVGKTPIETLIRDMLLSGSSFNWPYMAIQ
# Chain of Protein Tat (P04608 whole entry): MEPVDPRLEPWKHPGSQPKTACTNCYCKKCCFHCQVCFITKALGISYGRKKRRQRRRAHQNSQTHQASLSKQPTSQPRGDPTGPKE
# Chain of Protein-tyrosine kinase 2-beta (Q14289 whole entry): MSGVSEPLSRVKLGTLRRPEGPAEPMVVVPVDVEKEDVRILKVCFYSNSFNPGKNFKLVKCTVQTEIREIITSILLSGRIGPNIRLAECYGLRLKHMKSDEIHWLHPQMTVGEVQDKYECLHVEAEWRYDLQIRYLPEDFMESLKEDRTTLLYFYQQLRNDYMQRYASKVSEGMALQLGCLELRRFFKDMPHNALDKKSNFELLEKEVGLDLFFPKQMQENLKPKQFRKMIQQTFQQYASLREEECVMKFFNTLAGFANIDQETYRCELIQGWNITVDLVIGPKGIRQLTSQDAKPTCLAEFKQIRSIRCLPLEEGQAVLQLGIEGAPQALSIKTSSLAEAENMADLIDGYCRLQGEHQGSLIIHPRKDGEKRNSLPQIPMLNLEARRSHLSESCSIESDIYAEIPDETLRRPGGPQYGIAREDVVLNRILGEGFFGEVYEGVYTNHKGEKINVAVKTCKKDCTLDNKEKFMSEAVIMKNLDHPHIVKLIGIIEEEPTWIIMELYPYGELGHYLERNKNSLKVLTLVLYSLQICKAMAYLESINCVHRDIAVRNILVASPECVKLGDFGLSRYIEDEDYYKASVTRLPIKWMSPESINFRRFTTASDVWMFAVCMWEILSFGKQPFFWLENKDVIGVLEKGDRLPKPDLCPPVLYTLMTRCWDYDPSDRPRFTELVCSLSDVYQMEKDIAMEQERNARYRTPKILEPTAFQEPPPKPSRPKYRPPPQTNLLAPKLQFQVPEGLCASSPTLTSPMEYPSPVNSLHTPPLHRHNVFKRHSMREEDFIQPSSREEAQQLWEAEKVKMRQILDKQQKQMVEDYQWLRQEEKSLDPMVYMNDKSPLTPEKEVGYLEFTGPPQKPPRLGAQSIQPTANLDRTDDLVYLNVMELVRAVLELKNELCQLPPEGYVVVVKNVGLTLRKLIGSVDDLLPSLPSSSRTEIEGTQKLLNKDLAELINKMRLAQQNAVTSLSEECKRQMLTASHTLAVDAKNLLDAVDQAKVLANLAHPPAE
# Chain of Paired box protein Pax-8 (Q06710 whole entry): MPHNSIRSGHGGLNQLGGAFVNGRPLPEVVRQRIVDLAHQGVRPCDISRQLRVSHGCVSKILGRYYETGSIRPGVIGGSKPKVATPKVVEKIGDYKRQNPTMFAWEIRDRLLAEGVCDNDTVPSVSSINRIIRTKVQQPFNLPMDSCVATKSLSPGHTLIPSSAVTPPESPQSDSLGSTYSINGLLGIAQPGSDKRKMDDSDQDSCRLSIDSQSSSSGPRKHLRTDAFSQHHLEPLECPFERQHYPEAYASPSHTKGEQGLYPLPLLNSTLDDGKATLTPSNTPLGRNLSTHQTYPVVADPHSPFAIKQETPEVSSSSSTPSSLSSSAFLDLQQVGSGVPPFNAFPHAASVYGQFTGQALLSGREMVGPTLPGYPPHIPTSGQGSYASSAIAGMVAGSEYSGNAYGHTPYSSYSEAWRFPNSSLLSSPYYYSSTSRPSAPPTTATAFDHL
# Chain of Nonstructural protein 1 (Q194T2 whole entry): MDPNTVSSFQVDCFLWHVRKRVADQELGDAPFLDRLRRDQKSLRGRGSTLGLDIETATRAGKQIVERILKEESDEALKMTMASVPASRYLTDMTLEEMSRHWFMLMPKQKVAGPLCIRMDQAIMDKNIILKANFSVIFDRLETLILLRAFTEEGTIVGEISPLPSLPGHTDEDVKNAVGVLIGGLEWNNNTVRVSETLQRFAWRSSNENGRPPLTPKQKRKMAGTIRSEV
structure (smiles),measurement,setting,value
CCOC(=O)c1cnc2ccc(C)cc2c1Nc1ccc(N2CCOCC2)cc1,EC50,[1],41.5 µM (active)
same,EC50,[2],1.75 µM (active)
same,IC50,[3],47.7 µM (not active)
same,IC50,Nonstructural protein 1,30.7 µM (active)
same,IC50,Melanocortin receptor 4,19 µM (inactive)
same,IC50,[4],> 64.6 µM (inactive)
COc1ccc(C(=O)Nc2nc(-c3ccc(S(=O)(=O)N4CCOCC4)cc3)cs2)cc1,AC50,[5],63.4 µM (active)
same,AC50,[6],40.3 µM (active)
same,AC50,[7],0.664 µM (active)
same,AC50,[8],7.62 µM (active)
COc1ccc(OC)c(N/C(C)=C/C(=O)c2ccc(C)o2)c1,IC50,Protein Tat,> 100 µM (inconclusive)
O=C(Nc1ccc(SC(F)(F)F)cc1)c1ccccn1,IC50,cells,> 67.5 µM (inactive)
same,IC50,[9],> 0.834 µM (active)
Cc1cccc(N2CCN(C(=O)c3[nH]c(C(F)(F)F)nc3-c3ccccc3)CC2)c1C,IC50,cells,> 67.5 µM (inactive)
same,IC50,[9],> 67.5 µM (inactive)
CCNc1nc(-c2sc(NC(=O)C(C)(C)C)nc2C)c(-n2cc(-c3ccccc3)nn2)s1,IC50,[10],10.7 µM (inactive)
N#C[C@@H]1[C@H](c2ccc(-c3cccc(F)c3)cc2)[C@H](CO)N1C(=O)c1cccnc1,AC50,[6],57.4 µM (active)
same,AC50,[8],3.62 µM (active)
C[C@H](CO)N1C[C@H](C)[C@@H](CN(C)S(=O)(=O)c2ccc(Cl)cc2)OCCCC[C@H](C)Oc2ccc(NS(=O)(=O)c3cccs3)cc2C1=O,AC50,Paired box protein Pax-8,4.18 µM (active)
same,AC50,[11],12.7 µM (active)
same,AC50,[12],15 µM (active)
same,AC50,[13],21.4 µM (active)
same,AC50,[14],24.5 µM (active)
COc1cc2c(cc1[N+](=O)[O-])-c1ccc([N+](=O)[O-])cc1C2,AC50,[15],12.4 µM (active)
same,AC50,[16],26.7 µM (active)
O=C(Nc1cccnc1)c1cc(-c2cc(Cl)ccc2O)n[nH]1,EC50,[17],> 12 µM (not active)
same,EC50,[18],6.15 µM (active)
same,EC50,H4,0.608 µM (active)
same,EC50,[19],0.56 µM (active)
same,EC50,[20],0.439 µM (active)
